The text below walks through data of patent US20050009789A1, “Cyclooxygenase inhibition with nitroxyl” (The Government of the USA as represented by the Secretary …, priority 2003, published 2005).

Several values for one entry are separate records, joined by “and”; a condition that tells them apart may be missing. Equal entries are not always repeated.

One data set concerns the target T1, COX-2 (Ovis aries, UniProt P79208).
T1 construct: purchased Cayman Chemical #560101
T1 sequence (P79208 17-603): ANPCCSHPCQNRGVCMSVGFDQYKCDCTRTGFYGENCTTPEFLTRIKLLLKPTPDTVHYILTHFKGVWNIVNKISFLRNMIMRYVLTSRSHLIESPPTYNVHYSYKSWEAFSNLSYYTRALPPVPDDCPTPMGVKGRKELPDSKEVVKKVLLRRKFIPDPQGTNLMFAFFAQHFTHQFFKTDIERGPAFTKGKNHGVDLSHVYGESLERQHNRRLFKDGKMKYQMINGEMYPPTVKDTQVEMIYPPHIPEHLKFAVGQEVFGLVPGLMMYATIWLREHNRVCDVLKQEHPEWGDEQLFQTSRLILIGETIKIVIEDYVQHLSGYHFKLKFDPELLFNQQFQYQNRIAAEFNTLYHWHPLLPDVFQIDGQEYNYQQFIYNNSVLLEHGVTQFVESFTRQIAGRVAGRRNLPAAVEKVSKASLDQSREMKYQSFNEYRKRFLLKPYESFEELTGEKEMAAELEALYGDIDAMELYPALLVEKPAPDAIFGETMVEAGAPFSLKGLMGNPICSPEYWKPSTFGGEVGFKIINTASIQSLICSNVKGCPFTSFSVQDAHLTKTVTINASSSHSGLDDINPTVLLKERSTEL
Briefly: COX-2 inhibition, prostaglandin (PGF2α) enzyme immunoassay. It is filed as biochemical. An excerpt:
(§1) In some cases, screening in the latter method (measuring prostaglandin production) is accomplished using an enzyme immunoassay (EIA) where COX systems include COX-1 or COX-2, an EIA reaction buffer, Heme, and either a control solution, such as NaOH, for control systems or inhibitor solutions of the nitroxyl donor in NaOH having a range of progressively increasing concentrations of the nitroxyl-donating compound. These systems are reacted with arachidonic acid for a period typically of about five to ten minutes. The COX reactions are stopped in each system, for example, by the addition of hydrochloric acid (HCl).
(§2) The relative amounts prostaglandins, such as PGF2α, in each system are measured with an EIA kit. The EIA measures the amounts of prostaglandins in the systems based on binding to an assay antibody. Binding is determined by absorbance, for example, absorbance at 405 nm, with a plate reader, such as a Perkin Elmer plate reader. High binding results in low absorbance indicating low inhibition, while low binding results in high absorbance indicating high inhibition.
(§3) Once the inhibitor and control systems are prepared they are diluted in the EIA buffer at various dilution ratios, such as 1:1000, 1:2000, and 1:4000 and added to wells of the plate. The plate also contains prostaglandin (PG) standard systems, non-specific binding (NSB) systems, background COX systems, and zero binding (B0) systems, which are used to calibrate the EIA. PG standard systems are prepared at various progressively increasing concentrations of PG, for example 15.6, 31.3, 62.5, 125, 250, 500, 1000, and 2000 PG/mL. Background COX systems contain either boiled COX-1 or COX-2 diluted in EIA reaction buffer. NSB, and B0 systems include only the EIA buffer. Prostaglandin screening acetylcholinase tracer (reconstituted in the EIA buffer) is added to each system. Prostaglandin screening antiserum (reconstituted in the EIA buffer) is added to each system other than the NSB system. Typically, the plate is incubated from several hours to a day, such as from 4 to 24 hours at room temperature (about 22° C.). Ellman's reagent is added to each system in each well and the plate is agitated, such as on an orbital shaker, and protected from light, for example by covering with aluminum foil, for about an hour. The plate is then read on a plate reader, such as a Perkin Elmer plate reader.
(§4) An average value for the absorbance of the NSB systems is determined and this absorbance is used to correct the reading of other systems for NSB (by subtracting the average NSB absorbance). An average value for the absorbance of background COX also is determined and absorbance is later used to correct other systems for background COX levels.
(§5) An average value for B0 is obtained and NSB corrected. Average values for absorbance of each PG standard system are obtained and NSB corrected. The percentage of prostanoid binding is determined by dividing the average NSB corrected absorbance (binding (B)) for each PG standard system by the average NSB corrected absorbance for B0 systems (percentage equals B/B0*100). A standard curve is prepared with % B/B0 on the y axis and the prostaglandin concentration (PG/mL) on the x axis. Then the average % B/B0 for the background, control, and inhibitor systems are determined for each concentration tested. The PG concentration for each of these systems is determined by finding the point on the standard curve that corresponds to the determined % B/B0, determining the corresponding PG concentration on the x axis, and multiplying this concentration by the dilution factor used to prepare the system. To correct for background COX the PG concentration of the background COX-1 or COX-2 systems are subtracted from the COX-1 and COX-2 inhibitor and control systems, respectively. The percentage of inhibition is determined dividing the PG concentration for inhibitor systems by the PG concentration for control systems and multiplying by 100. […]

A further data set in a line: Nitroxyl donation pH. Format: physicochemical. An excerpt:
“Nitroxyl donation pH” is the pH at which and above which a nitroxyl-donating compounds donates nitroxyl.
Further, compounds are easily tested for nitroxyl donation with routine experiments. Although it is impractical to directly measure whether nitroxyl is donated, several tests are accepted for determining whether a compound donates nitroxyl. For example, the compound of interest can be placed in solution, for example in water, in a sealed container. After sufficient time for disassociation has elapsed, such as from several minutes to several hours, the headspace gas is withdrawn and analyzed to determine its composition, such as by gas chromatography and/or mass spectroscopy. […] Nitroxyl donation also can be detected by exposing the target donor to metmyoglobin (Mb^3+). Nitroxyl reacts with Mb^3+ to form an Mb^2+—NO complex, which can be detected by changes in the ultraviolet/visible spectrum or by Electron Paramagnetic Resonance (EPR). […]
Testing for nitroxyl donation in some cases is performed at a range of pHs to determine the nitroxyl donation pH of the nitroxyl-donating compound. […] After the lowest pH at which nitroxyl donation occurs in a first set of tests is found, additional tests can be performed with narrower ranges of pH around the first determined nitroxyl donation pH to obtain a more specific nitroxyl donation pH. […]

The next data set addresses T2, COX-1 (Ovis aries, UniProt P05979).
T2 construct: purchased Cayman Chemical #560101
T2 sequence (P05979 25-600): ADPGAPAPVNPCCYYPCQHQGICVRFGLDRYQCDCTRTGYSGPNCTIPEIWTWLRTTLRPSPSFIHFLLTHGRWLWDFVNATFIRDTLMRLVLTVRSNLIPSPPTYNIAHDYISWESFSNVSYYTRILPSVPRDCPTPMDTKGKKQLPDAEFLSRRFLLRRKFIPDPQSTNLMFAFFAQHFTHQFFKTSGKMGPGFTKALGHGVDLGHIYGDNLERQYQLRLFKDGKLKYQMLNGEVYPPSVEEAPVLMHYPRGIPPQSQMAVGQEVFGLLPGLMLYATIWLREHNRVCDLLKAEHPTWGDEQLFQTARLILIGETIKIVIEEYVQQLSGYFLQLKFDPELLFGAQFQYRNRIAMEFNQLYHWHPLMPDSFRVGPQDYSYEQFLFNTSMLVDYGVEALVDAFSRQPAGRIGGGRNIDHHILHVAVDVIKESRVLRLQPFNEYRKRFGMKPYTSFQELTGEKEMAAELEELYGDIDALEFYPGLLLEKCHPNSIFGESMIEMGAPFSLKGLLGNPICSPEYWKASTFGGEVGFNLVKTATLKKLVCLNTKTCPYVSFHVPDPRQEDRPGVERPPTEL
Briefly: COX-1 inhibition, prostaglandin (PGF2α) enzyme immunoassay. Format: biochemical.
Excerpt: as §1, §2, §3, §4, §5

Setting [1] is: Example 3, nitroxyl donor concentration 25 μM.
Setting [2] is: Example 3, nitroxyl donor concentration 50 μM.
Setting [3] is: Example 3, nitroxyl donor concentration 75 μM.
Setting [4] is: Example 3, nitroxyl donor concentration 100 μM.
Where [5] appears, read: Example 3, nitroxyl donor concentration 1000 μM.
[6] abbreviates: Example 1, Angeli's salt concentration 0.001 μM, 1:2000 dilution.
The mark [7] stands for this setting: Example 1, Angeli's salt concentration 1.0 μM, 1:2000 dilution.
[8] abbreviates: Example 1, Angeli's salt concentration 10.0 μM, 1:2000 dilution.
Where [9] appears, read: Example 1, Angeli's salt concentration 500.0 μM, 1:2000 dilution.
[10] abbreviates: Example 2, Angeli's salt concentration 0.100 μM, data below about 50 μM called unreliable.
Where [11] appears, read: Example 2, Angeli's salt concentration 100.0 μM.
The mark [12] stands for this setting: Example 2, Angeli's salt concentration 500.0 μM.
[13] abbreviates: Example 2, Angeli's salt concentration 1000.0 μM.

Regarding `CC(C)N[N+]([O-])=N[O-].[Na+]` [IPA/NO, Na(CH3)2C(H)N(H)N(O)NO], the “COX-2 inhibition, overall trend compared to Angeli's salt” value on COX-2 (Example 3, 25 to 1000 μM) is recorded as “more effective inhibitor of COX-2 than Angeli's salt”. In addition, the “Percentage COX-2 inhibition” value on COX-2 (setting [1]) is recorded as 6.7%; at COX-2 (setting [2]), 59.5%; at COX-2 (setting [3]), 46.4%; at COX-2 (setting [4]) it was 62.2%; on COX-2 (setting [5]), 86.8%. Further, in the data set “Nitroxyl donation pH”, the “nitroxyl donation pH (pH at which and above which nitroxyl is donated)” value is “about 5.5”.
Take `[Na+].[Na+].[O-][N+]([O-])=NO` [Angeli's salt, Na2ON(O)NO]: the “COX-1/COX-2 IC50 ratio” value on COX-2 (Example 1) was “about 0.08”. The IC50 on COX-2 (Example 1, read from FIG. 1) was roughly 50 µM; on COX-2 (Example 2, reasonable estimate), roughly 50 µM; at COX-1 (Example 1, read from FIG. 1), roughly 600 µM; at COX-1 (Example 2, reasonable estimate) it was 200 to 250 µM. Besides, the “Percentage COX-2 inhibition” value was 0.0% at COX-2 (setting [6]); 34.6% at COX-2 (setting [7]); 28.8% at COX-2 (setting [8]); 100% and 99.2% at COX-2 (Example 1, Angeli's salt concentration 100.0 μM, 1:2000 dilution, 100 µM); 86.4% on COX-2 (setting [9]); 98.9% on COX-2 (setting [10]). Besides, the “Percentage COX-2 inhibition” value on COX-2 (setting [11]) was 98%; on COX-2 (setting [12]), 105.7%; at COX-2 (setting [13]) it was 106%; on COX-2 (setting [1]), 5.4%; on COX-2 (setting [2]) it was 13.7%; at COX-2 (setting [3]) it was 49.2%. Moreover, the “Percentage COX-2 inhibition” value at COX-2 (setting [4]) stood at 59.9%; at COX-2 (setting [5]), 60.4%. For the same compound, at COX-2 (one particular example (detailed description)), the “COX-2/COX-1 IC50 ratio” value is given as “about 0.08”. The “nitroxyl donation pH (pH at which and above which nitroxyl is donated)” value in “Nitroxyl donation pH” is “about 3”. Moreover, the “Percentage COX-1 Inhibition” value was 0.0% on COX-1 (setting [6]); 0.0% on COX-1 (setting [7]); 0.0% at COX-1 (setting [8]); 18.3% at COX-1 (Example 1, Angeli's salt concentration 100.0 μM, 1:2000 dilution); 40.2% at COX-1 (setting [9]); 95.4% on COX-1 (Example 1, Angeli's salt concentration 1000.0 μM, 1:2000 dilution). Further, the “Percentage COX-1 Inhibition” value was 97.5% at COX-1 (Example 2, Angeli's salt concentration 0.001 μM, data below about 50 μM called unreliable); 24.7% at COX-1 (setting [10]); 57.5% at COX-1 (Example 2, Angeli's salt concentration 1.0 μM, data below about 50 μM called unreliable); 16.4% on COX-1 (Example 2, Angeli's salt concentration 50.0 μM); 45.7% on COX-1 (setting [11]); 62.5% at COX-1 (setting [12]). Also, the “Percentage COX-1 Inhibition” value at COX-1 (setting [13]) came to 68.6%. At COX-1 (Example 1, concentrations from about 50 μM to about 100 μM), the COX-1 activity inhibited is listed as no more than 19%.
